Eight molecules from PubChem BioAssay (NCI) can be followed below.

“And” between values parts separate entries of the source, which are not always exact repeats. Equal values may be shown once.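 Cultured in 96-well plates, cells were exposed to test compound for 48 hours across five concentrations. Abbreviation: GI50, concentration required for 50% inhibition of growth. TGI: total growth inhibition.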

Some test systems named below: OVCAR-8 ovarian; SK-MEL-28 melanoma; HCT-15 colon; IGROV1 ovarian; SK-OV-3 ovarian; SF-268 CNS; SR leukemia; MDA-MB-231 breast; MALME-3M melanoma; SF-295 CNS.
Holding throughout (experiment): inhibition of tumour cell growth, NCI panel, 48 h

For the molecule `CC(=O)c1nc(-c2ccc(C[C@@H](CNC(=O)CN(C)C)NC(=O)c3ccc(OC(C)C)c(Cl)c3)cc2)cn1C`, the GI50 was 0.0617 µM with OVCAR-8 ovarian; 8.01 µM with SK-MEL-28 melanoma; 0.0899 µM with HCT-15 colon; 0.896 µM in the assay on IGROV1 ovarian; 0.0346 µM with SK-OV-3 ovarian; 0.242 µM in the assay with SF-268 CNS. The GI50 in the assay with SR leukemia is 0.0506 µM; with MDA-MB-231 breast it was 0.0535 µM; in the assay with MALME-3M melanoma it was 0.277 µM; in the assay on SF-295 CNS, 0.0338 µM. Besides, the TGI in the assay on OVCAR-8 ovarian stood at 23.4 µM; in the assay on SK-MEL-28 melanoma, 22.6 µM; in the assay on HCT-15 colon, 19.3 µM; with IGROV1 ovarian, 21.9 µM; with SK-OV-3 ovarian, 16.1 µM; in the assay on SF-268 CNS it was 22.7 µM. The TGI in the assay with SR leukemia was found to be 12.6 µM; in the assay on MDA-MB-231 breast it was 8.75 µM; with MALME-3M melanoma it was 18.2 µM; with SF-295 CNS it was 7.75 µM.
For the molecule `CCOC(=O)C(Cc1cc(OC)c(CC(C(=O)OCC)C(=O)OCC)cc1OC)C(=O)OCC`, the TGI in the assay with OVCAR-8 ovarian, with SK-MEL-28 melanoma, in the assay on HCT-15 colon, in the assay with IGROV1 ovarian, with SK-OV-3 ovarian and with SF-268 CNS was over 100 µM throughout. Besides, the TGI in the assay with SR leukemia, in the assay with MDA-MB-231 breast, with MALME-3M melanoma and with SF-295 CNS was over 100 µM in each case.
Take `NC(=S)c1cccc(C2Nc3ccccc3O2)c1` (stereo unspecified): the TGI with OVCAR-8 ovarian, in the assay with SK-MEL-28 melanoma, in the assay on HCT-15 colon, in the assay with IGROV1 ovarian, with SK-OV-3 ovarian and in the assay on SF-268 CNS was over 100 µM throughout. For the same molecule, the TGI in the assay on SR leukemia, with MDA-MB-231 breast, in the assay on MALME-3M melanoma and with SF-295 CNS was over 100 µM in each case.
For the molecule `S=C(Nc1ccc(-c2nc3ccccc3s2)cc1)Nc1ccc(-c2nc3ccccc3s2)cc1`, the GI50 in the assay with OVCAR-8 ovarian is 19.9 µM; with SK-MEL-28 melanoma, 22.3 µM; with HCT-15 colon, 15.4 µM; in the assay with IGROV1 ovarian it was 13 µM; in the assay on SK-OV-3 ovarian, 58.8 µM; in the assay on SF-268 CNS it was 23.6 µM. The GI50 was 21 µM in the assay on SR leukemia, 13.7 µM with MDA-MB-231 breast, 20 µM in the assay with MALME-3M melanoma and 17.6 µM in the assay on SF-295 CNS. Also, the TGI in the assay on OVCAR-8 ovarian is 49.4 µM; in the assay with SK-MEL-28 melanoma, 54.8 µM; in the assay with HCT-15 colon it was 35.7 µM; in the assay with IGROV1 ovarian, 41.7 µM; in the assay on SK-OV-3 ovarian, over 100 µM; in the assay with SF-268 CNS it was 94.8 µM. Also, the TGI with SR leukemia is 49.5 µM; in the assay on MDA-MB-231 breast, 35 µM; in the assay on MALME-3M melanoma it was 65.4 µM; in the assay with SF-295 CNS, over 100 µM.
Turning to `COc1c(OC2OC(C)C(O)C(O)C2O)c(OC)c2oc(-c3ccc(O)cc3)cc(=O)c2c1O` (stereo unspecified), the GI50 in the assay with OVCAR-8 ovarian is 28 µM; in the assay with SK-MEL-28 melanoma, 35.4 µM; with HCT-15 colon, 40.3 µM; in the assay with IGROV1 ovarian, 18.1 µM; with SK-OV-3 ovarian, 86.3 µM; with SF-268 CNS, 33.1 µM. Also, the GI50 is 19.7 µM in the assay with SR leukemia, 16.5 µM in the assay with MDA-MB-231 breast, 34.2 µM in the assay on MALME-3M melanoma and 36.4 µM with SF-295 CNS. Besides, the TGI in the assay on OVCAR-8 ovarian is over 100 µM; in the assay on SK-MEL-28 melanoma, over 100 µM; in the assay with HCT-15 colon, over 100 µM; in the assay with IGROV1 ovarian it was 92.2 µM; in the assay with SK-OV-3 ovarian, over 100 µM; in the assay on SF-268 CNS, over 100 µM. Besides, the TGI was 93.5 µM in the assay with SR leukemia, 71.8 µM in the assay with MDA-MB-231 breast, over 100 µM in the assay on MALME-3M melanoma and over 100 µM in the assay with SF-295 CNS.
As for `Cc1cc(C)c(-c2c(O)c(Br)c(-c3c(C)cc(C)c(Br)c3C)c(O)c2Br)c(C)c1Br`, the GI50 was 3.08 µM in the assay on OVCAR-8 ovarian; 2.66 µM with SK-MEL-28 melanoma; 2.51 µM in the assay on HCT-15 colon; 3.59 µM with IGROV1 ovarian; 4.77 µM in the assay on SK-OV-3 ovarian; 3.7 µM with SF-268 CNS. Also, the GI50 in the assay with SR leukemia was 2.32 µM; with MDA-MB-231 breast, 1.65 µM; in the assay on MALME-3M melanoma, 1.65 µM; with SF-295 CNS, 1.83 µM. For the same molecule, the TGI in the assay on OVCAR-8 ovarian is 10.4 µM; in the assay with SK-MEL-28 melanoma, 12.8 µM; in the assay with HCT-15 colon it was 10.8 µM; in the assay on IGROV1 ovarian, 13.9 µM; with SK-OV-3 ovarian, 23.8 µM; with SF-268 CNS, 16.4 µM. Also, the TGI with SR leukemia is 8.29 µM; in the assay with MDA-MB-231 breast it was 4.42 µM; in the assay with MALME-3M melanoma, 5.8 µM; with SF-295 CNS, 5.01 µM.
As to `CCOC(=O)/C=C/c1ccc([N+](=O)[O-])o1`, the GI50 with OVCAR-8 ovarian was 2.91 µM; in the assay on SK-MEL-28 melanoma it was 2.08 µM; in the assay with HCT-15 colon, 2.03 µM; in the assay on IGROV1 ovarian, 10.9 µM; with SK-OV-3 ovarian, 22.4 µM; in the assay with SF-268 CNS, 5.38 µM. Besides, the GI50 was 1.64 µM in the assay with SR leukemia, 3.51 µM in the assay with MDA-MB-231 breast, 2.32 µM in the assay on MALME-3M melanoma and 19.7 µM in the assay with SF-295 CNS. The TGI with OVCAR-8 ovarian was 12.3 µM; with SK-MEL-28 melanoma, 5.07 µM; in the assay on HCT-15 colon it was 7.53 µM; with IGROV1 ovarian it was 24.8 µM; with SK-OV-3 ovarian, over 100 µM; with SF-268 CNS, 40.5 µM. Also, the TGI in the assay with SR leukemia came out at 26.1 µM; in the assay on MDA-MB-231 breast it was 11.6 µM; in the assay on MALME-3M melanoma, 4.99 µM; in the assay with SF-295 CNS it was 48.2 µM.
Consider `CCCC(=O)Nc1cc(/C=C/C(=O)N2C[C@@H]3C[C@]34C2=CC(=O)c2[nH]cc(C)c24)n(C)c1`, for which, in the assay on OVCAR-8 ovarian, the GI50 is 0.0447 µM. Also, the TGI in the assay with OVCAR-8 ovarian is 0.406 µM and 0.285 µM; in the assay with SK-MEL-28 melanoma it was 1.6 µM; in the assay with HCT-15 colon, 9.89 µM; with IGROV1 ovarian, 25 µM; with SK-OV-3 ovarian, 7.97 µM; with SF-268 CNS it was 4.89 µM. Moreover, the TGI in the assay on SR leukemia came out at 0.0709 µM; with MDA-MB-231 breast it was 1.68 µM; with MALME-3M melanoma it was 0.337 µM; with SF-295 CNS it was 25 µM.
